{"source": "patent US9883998B2", "about": "“Methods for lightening skin using arbutin compositions” (OMP, Inc., priority 2007, dated 2018)", "key": {"[1]": {"tested_on": "skin", "experiment": "Skin lightening in volunteers by Minolta Chromameter b* parameter", "type": "in vivo, human", "conditions": "for dose dependence of skin lightening efficacy: 4% versus 7% arbutin in Examples 1 and 2 base formulas", "description": "Ten volunteers between the ages of 18 and 60 years of age enrolled in the study. Volunteers included in the study were of Asian or Caucasian descent with a Fitzpatrick phototype III or above. Enrolled subjects were free of any systemic or dermatologic disorder, including a known history of allergies or other medical conditions which, in the opinion of the Medical Investigator, could interfere with the conduct of the study, interpretation of results, or increase the risk of adverse reactions. Moreover, volunteers had no clinically significant abnormal findings, based on their medical history, which may have affected study participation as determined by the investigator. Impaneled female volunteers were not pregnant (as assessed with a urine pregnancy test at the start of the study and every 4 weeks thereafter) and agreed to use suitable contraceptive methods throughout the duration of the study. All volunteers were willing to refrain from using any medications, moisturizers, sunscreens, fragrances or new personal care products/laundry detergents on the back for the duration of the study and were also willing to avoid sun exposure, on the back (ie, sunbathing), as best as possible and refrain from using tanning booths for the study duration. Furthermore, subjects agreed to avoid swimming for the entire study.\nAll volunteers reported to the clinical site every day, excluding weekends, for application of study products in an open label, un-blinded fashion. Study products and dosing were as follows:\nAll subjects had 2 cm^2 squares demarcated on their backs, with a plastic template adhered to the skin, for identification of treatment sites. […]\nThe safety of the formulations of Example 1 and Example 2 was assessed via Repeated Insult Patch Testing on 49 volunteers, in a separate study. All products used in the study presented herein were evaluated for safety through investigator scoring of the application sites at baseline, 4- and 8-weeks. […] Skin lightening was assessed via use of the Minolta CR-300 Chromameter® at baseline, 4- and 8-weeks. […]"}, "[2]": {"target": "tyrosinase (Homo sapiens, UniProt P14679)", "sequence (P14679 19-529)": "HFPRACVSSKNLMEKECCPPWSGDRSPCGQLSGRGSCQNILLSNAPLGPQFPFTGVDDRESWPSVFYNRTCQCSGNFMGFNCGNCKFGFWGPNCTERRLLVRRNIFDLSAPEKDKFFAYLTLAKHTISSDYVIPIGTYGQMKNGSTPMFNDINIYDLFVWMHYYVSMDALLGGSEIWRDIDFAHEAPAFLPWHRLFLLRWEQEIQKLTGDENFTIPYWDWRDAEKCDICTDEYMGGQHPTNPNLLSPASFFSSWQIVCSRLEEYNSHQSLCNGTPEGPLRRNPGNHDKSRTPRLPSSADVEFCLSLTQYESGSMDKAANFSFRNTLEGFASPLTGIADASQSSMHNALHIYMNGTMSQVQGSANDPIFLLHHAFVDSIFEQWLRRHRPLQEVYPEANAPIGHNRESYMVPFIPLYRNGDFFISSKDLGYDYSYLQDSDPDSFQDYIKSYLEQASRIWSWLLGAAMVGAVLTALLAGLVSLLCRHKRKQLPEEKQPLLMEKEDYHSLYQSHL", "conditions": "human melanocyte cultures; cited from earlier work"}}}
{"smiles": "OC[C@H]1O[C@@H](Oc2ccc(O)cc2)[C@H](O)[C@@H](O)[C@@H]1O", "note": "[Arbutin, hydroxy phenyl-b-D-glucopyranoside]", "values": [{"measurement": "dose dependence of skin lightening efficacy", "setting": "[1]", "value": "dose dependent"}, {"measurement": "dose dependence of skin lightening efficacy", "setting": "[1]; listed as arbutin", "value": "dose dependant"}, {"measurement": "skin lightening efficacy of 7% arbutin versus 4% hydroquinone", "setting": "[1]; 7% arbutin, relatively non-photoexposed skin, formulas similar to bleaching and correcting cream and Blender bases", "value": "equally as efficacious as 4% hydroquinone"}, {"measurement": "tyrosinase inhibiting potency relative to hydroquinone", "setting": "[2]", "value": "one-hundredth that of hydroquinone"}]}
